Experimental findings from US12617797B2, “Substituted pyrazolo [1,5-a]pyrimidines having multimodal activity against pain” (ESTEVE PHARMACEUTICALS, S.A., priority 2020, dated 2026) are described below.

Structures are written as SMILES.

The target of test [1] is Human α2δ-1 subunit of Cav2.2 calcium channel (Homo sapiens, UniProt P54289). Nature of the test: Human α2δ-1 subunit of Cav2.2 calcium channel assay ([3H]-gabapentin binding). To be noted: binding to the α2δ-1 subunit of voltage-gated calcium channels expressed as Ki; + also covers inhibition between 1% and 50%. The protocol: Biological Activity Pharmacological Study Human α2δ-1 Subunit of Cav2.2 Calcium Channel Assay
Chain of Human α2δ-1 subunit of Cav2.2 calcium channel (P54289 25-1103): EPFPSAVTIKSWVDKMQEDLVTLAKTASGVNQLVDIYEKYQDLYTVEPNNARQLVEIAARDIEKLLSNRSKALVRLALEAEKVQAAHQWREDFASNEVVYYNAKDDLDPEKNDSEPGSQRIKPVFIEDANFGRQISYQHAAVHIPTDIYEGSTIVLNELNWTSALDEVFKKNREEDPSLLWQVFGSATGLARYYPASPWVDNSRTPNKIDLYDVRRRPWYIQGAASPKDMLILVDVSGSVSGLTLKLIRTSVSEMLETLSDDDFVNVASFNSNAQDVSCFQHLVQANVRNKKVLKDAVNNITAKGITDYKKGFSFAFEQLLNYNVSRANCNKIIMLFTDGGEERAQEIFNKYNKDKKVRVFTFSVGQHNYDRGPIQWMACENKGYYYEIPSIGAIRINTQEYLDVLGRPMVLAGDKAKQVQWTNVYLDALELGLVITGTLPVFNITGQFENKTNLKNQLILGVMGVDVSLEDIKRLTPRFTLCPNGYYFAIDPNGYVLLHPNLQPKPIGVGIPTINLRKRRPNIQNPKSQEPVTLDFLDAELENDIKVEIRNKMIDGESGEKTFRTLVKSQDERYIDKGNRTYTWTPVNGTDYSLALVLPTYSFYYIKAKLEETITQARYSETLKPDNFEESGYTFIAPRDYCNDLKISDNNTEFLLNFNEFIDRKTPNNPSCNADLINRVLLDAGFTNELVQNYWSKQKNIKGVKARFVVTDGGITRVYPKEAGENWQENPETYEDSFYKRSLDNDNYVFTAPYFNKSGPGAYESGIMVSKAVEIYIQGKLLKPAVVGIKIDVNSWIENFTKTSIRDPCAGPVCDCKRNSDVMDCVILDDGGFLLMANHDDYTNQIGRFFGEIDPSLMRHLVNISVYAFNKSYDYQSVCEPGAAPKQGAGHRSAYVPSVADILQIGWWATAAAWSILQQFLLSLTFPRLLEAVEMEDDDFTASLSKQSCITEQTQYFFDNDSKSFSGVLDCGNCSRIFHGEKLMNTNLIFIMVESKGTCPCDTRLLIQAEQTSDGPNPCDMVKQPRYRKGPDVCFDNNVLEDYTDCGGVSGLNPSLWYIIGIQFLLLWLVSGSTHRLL
Human α2δ-1 enriched membranes (2.5 μg) were incubated with 15 nM of radiolabeled [^3H]-Gabapentin in assay buffer containing Hepes-KOH 10 mM, pH 7.4. NSB (non specific binding) was measured by adding 10 μM pregabalin. The binding of the test compound was measured at either one concentration (% inhibition at 1 or 10 μM) or five different concentrations to determine affinity values (Ki). After 60 min incubation at 27° C., binding reaction was terminated by filtering through Multiscreen GF/C (Millipore) presoaked in 0.5% polyethyleneimine in Vacuum Manifold Station, followed by 3 washes with ice-cold filtration buffer containing 50 mM Tris-HCl, pH 7.4. Filter plates were dried at 60° C. for 1 h and 30 μL of scintillation cocktail were added to each well before radioactivity reading. Readings were performed in a Trilux 1450 Microbeta radioactive counter (Perkin Elmer).

Another test addresses T1, Human σ1 receptor (Homo sapiens, UniProt Q99720).
T1 construct: expressed in transfected cells; host or cells: HEK-293
In words: Human σ1 receptor radioligand assay ([3H](+)-pentazocine binding, transfected HEK-293 membranes). To be noted: binding to σ1 receptor expressed as Ki; + also covers inhibition between 1% and 50%; read-out: σ-1 binding. The protocol: Human σ1 Receptor Radioligand Assay
Transfected HEK-293 membranes (7 μg) were incubated with 5 nM of [^3H](+)-pentazocine in assay buffer containing Tris-HCl 50 mM at pH 8. NBS (non-specific binding) was measured by adding 10 μM haloperidol. The binding of the test compound was measured at either one concentration (% inhibition at 1 or 10 μM) or five different concentrations to determine affinity values (Ki). Plates were incubated at 37° C. for 120 minutes. After the incubation period, the reaction mix was then transferred to MultiScreen HTS, FC plates (Millipore), filtered and plates were washed 3 times with ice-cold 10 mM Tris-HCL (pH7.4). Filters were dried and counted at approximately 40% efficiency in a MicroBeta scintillation counter (Perkin-Elmer) using EcoScint liquid scintillation cocktail.

T1 sequence (Q99720 whole entry): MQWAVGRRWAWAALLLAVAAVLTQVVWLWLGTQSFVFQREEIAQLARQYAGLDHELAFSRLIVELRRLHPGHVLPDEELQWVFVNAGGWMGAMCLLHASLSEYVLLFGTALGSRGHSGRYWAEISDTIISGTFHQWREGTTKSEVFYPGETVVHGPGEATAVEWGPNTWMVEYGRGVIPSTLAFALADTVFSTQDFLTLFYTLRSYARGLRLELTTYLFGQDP

As to `CNCCN(C)c1cc2nccc(C3CCCN(Cc4ccccc4)C3)n2n1` (centres unmarked) [Example 81, N^1-(7-(1-Benzylpiperidin-3-yl)pyrazolo[1,5-a]pyrimidin-2-yl)-N^1,N^2-dimethylethane-1,2-diamine], the Ki was 0.5 to 5 µM in test [1] and more than 1 µM on Human σ1 receptor.
In the same order, the values of `Cc1nn2c([C@H]3CCCN(Cc4ccc(Cl)cc4)C3)ccnc2c1CNCC1CCOCC1` [Example 199, (S)-1-(7-(1-(4-Chlorobenzyl)piperidin-3-yl)-2-methylpyrazolo[1,5-a]pyrimidin-3-yl)-N-((tetrahydro-2H-pyran-4-yl)methyl)methanamine] are less than 0.5 µM and less than 0.5 µM.
`c1ccc(CN2CCCC(c3ccnc4cc(-c5cccs5)nn34)C2)cc1` (centres unmarked) [Example 19, 7-(1-Benzylpiperidin-3-yl)-2-(thiophen-2-yl)pyrazolo[1,5-a]pyrimidine]: the Ki in test [1] is 0.5 to 5 µM; on Human σ1 receptor, more than 1 µM.
In the same order, the values of `c1ccc(CN2CCCC(c3ccnc4c(-c5cccnc5)cnn34)C2)cc1` (centres unmarked) [Example 37, 7-(1-Benzylpiperidin-3-yl)-3-(pyridin-3-yl)pyrazolo[1,5-a]pyrimidine] are 0.5 to 5 µM and more than 1 µM.
On the same counts, the results for `Cc1nn2c(CC3CCCN(Cc4cccc(Cl)c4)C3)ccnc2c1CN(C)C` (centres unmarked) [Example 252, 1-(7-((1-(3-Chlorobenzyl)piperidin-3-yl)methyl)-2-methylpyrazolo[1,5-a]pyrimidin-3-yl)-N,N-dimethylmethanamine] are more than 5 µM and less than 0.5 µM.
Regarding `Cc1nn2c(C3CCCN(Cc4ccc(Cl)cc4Cl)C3)ccnc2c1-c1ccncc1` (centres unmarked) [Example 124, 7-(1-(2,4-Dichlorobenzyl)piperidin-3-yl)-2-methyl-3-(pyridin-4-yl)pyrazolo[1,5-a]pyrimidine], the Ki in test [1] is more than 5 µM; on Human σ1 receptor, 0.5 to 1 µM.
On the same counts, the results for `Cc1nn2c(C3CCCN(Cc4ccc(Cl)cc4)C3)ccnc2c1-c1ccnc(CO)c1` (centres unmarked) [Example 134, (4-(7-(1-(4-Chlorobenzyl)piperidin-3-yl)-2-methylpyrazolo[1,5-a]pyrimidin-3-yl)pyridin-2-yl)methanol] are more than 5 µM and 0.5 to 1 µM.
In the same order, the values of `Cc1nn2c([C@H]3CCCN(Cc4ccc(Cl)cc4)C3)ccnc2c1CN[C@H](C)c1ccccc1` [Example 196, (R)—N-((7-((S)-1-(4-chlorobenzyl)piperidin-3-yl)-2-methylpyrazolo[1,5-a]pyrimidin-3-yl)methyl)-1-phenylethan-1-amine] are more than 5 µM and less than 0.5 µM.
On the same counts, the results for `Cc1nn2c(C3CCCN(Cc4ccccc4)C3)ccnc2c1Br` (centres unmarked) [Example 10, 7-(1-Benzylpiperidin-3-yl)-3-bromo-2-methylpyrazolo[1,5-a]pyrimidine] are 0.5 to 5 µM and less than 0.5 µM.
As to `COc1cccc(-c2cc3nccc(C4CCCN(Cc5ccccc5)C4)n3n2)n1` (centres unmarked) [Example 30, 7-(1-Benzylpiperidin-3-yl)-2-(6-methoxypyridin-2-yl)pyrazolo[1,5-a]pyrimidine], the figures for the Ki (in test [1]; on Human σ1 receptor) were more than 5 µM and more than 1 µM, respectively.
In the same order, the values of `Cc1nn2c([C@H]3CCCN(Cc4ccccc4)C3)ccnc2c1CNCC1CCOCC1` [Example 204, (S)-1-(7-(1-Benzylpiperidin-3-yl)-2-methylpyrazolo[1,5-a]pyrimidin-3-yl)-N-((tetrahydro-2H-pyran-4-yl)methyl)methanamine] are 0.5 to 5 µM and less than 0.5 µM.
On the same counts, the results for `CNCc1c(C)nn2c([C@H]3CCCN(Cc4ccc(Cl)cc4)C3)ccnc12` [Example 213, (S)-1-(7-(1-(4-chlorobenzyl)piperidin-3-yl)-2-methylpyrazolo[1,5-a]pyrimidin-3-yl)-N-methylmethanamine] are 0.5 to 5 µM and less than 0.5 µM.
In the same order, the values of `COc1ccncc1-c1cc2nccc(C3CCCN(Cc4ccccc4)C3)n2n1` (centres unmarked) [Example 34, 7-(1-Benzylpiperidin-3-yl)-2-(4-methoxypyridin-3-yl)pyrazolo[1,5-a]pyrimidine] are 0.5 to 5 µM and more than 1 µM.
Regarding `Cc1cnc2c(-c3ccncc3)cnn2c1C1CCCN(Cc2ccccc2)C1` (centres unmarked) [Example 41, 7-(1-Benzylpiperidin-3-yl)-6-methyl-3-(pyridin-4-yl)pyrazolo[1,5-a]pyrimidine], the results for the Ki (in test [1]; on Human σ1 receptor) were 0.5 to 5 µM and more than 1 µM, respectively.
In the same order, the values of `Cc1nn2c(C3CCCN(Cc4ccc(Cl)cc4)C3)ccnc2c1-c1ccnc(OCC2CC2)c1` (centres unmarked) [Example 137, 7-(1-(4-Chlorobenzyl)piperidin-3-yl)-3-(2-(cyclopropylmethoxy)pyridin-4-yl)-2-methylpyrazolo[1,5-a]pyrimidine] are more than 5 µM and more than 1 µM.
On the same counts, the results for `Cc1nn2c(C3CCCN(Cc4ccc(Cl)cc4)C3)ccnc2c1-c1ccnc(N)n1` (centres unmarked) [Example 140, 4-(7-(1-(4-Chlorobenzyl)piperidin-3-yl)-2-methylpyrazolo[1,5-a]pyrimidin-3-yl)pyrimidin-2-amine] are 0.5 to 5 µM and more than 1 µM.
In the same order, the values of `CCOc1ccc(-c2cnn3c(C4CCCN(Cc5ccccc5)C4)ccnc23)cc1` (centres unmarked) [Example 39, 7-(1-Benzylpiperidin-3-yl)-3-(4-ethoxyphenyl)pyrazolo[1,5-a]pyrimidine] are more than 5 µM and more than 1 µM.
Turning to `CCCCN1CCCC(c2ccnc3cc(C)nn23)C1` (centres unmarked) [Example 64, 7-(1-Butylpiperidin-3-yl)-2-methylpyrazolo[1,5-a]pyrimidine], the Ki in test [1] was more than 5 µM; at Human σ1 receptor it was less than 0.5 µM.
In the same order, the values of `c1ccc(CN2CCCC(c3ccnc4cc(-c5ccncc5)nn34)C2)cc1` (centres unmarked) [Example 16, 7-(1-Benzylpiperidin-3-yl)-2-(pyridin-4-yl)pyrazolo[1,5-a]pyrimidine] are 0.5 to 5 µM and more than 1 µM.
In the same order, the values of `CCc1cc(-c2c(C)nn3c(C4CCCN(Cc5ccccc5)C4)ccnc23)ccn1` (centres unmarked) [Example 54, 7-(1-Benzylpiperidin-3-yl)-3-(2-ethylpyridin-4-yl)-2-methylpyrazolo[1,5-a]pyrimidine] are 0.5 to 5 µM and more than 1 µM.
On the same counts, the results for `c1ccc(CN2CCCC(c3ccnc4ccnn34)C2)cc1` (centres unmarked) [Example 2, 7-(1-Benzylpiperidin-3-yl)pyrazolo[1,5-a]pyrimidine] are 0.5 to 5 µM and more than 1 µM.
On to `Cc1nn2c(C3CCCN(Cc4ccc(Cl)cc4)C3)ccnc2c1CNCCN1CCOCC1` (centres unmarked) [Example 166, N-((7-(1-(4-Chlorobenzyl)piperidin-3-yl)-2-methylpyrazolo[1,5-a]pyrimidin-3-yl)methyl)-2-morpholinoethan-1-amine], for which the Ki is 0.5 to 5 µM in test [1] and less than 0.5 µM at Human σ1 receptor.
On the same counts, the results for `Oc1ncccc1-c1cc2nccc(C3CCCN(Cc4ccc(Cl)cc4)C3)n2n1` (centres unmarked) [Example 115, 3-(7-(1-(4-chlorobenzyl)piperidin-3-yl)pyrazolo[1,5-a]pyrimidin-2-yl)pyridin-2-ol] are more than 5 µM and more than 1 µM.
In the same order, the values of `Clc1nn2c([C@H]3CCCN(Cc4ccccc4)C3)ccnc2c1CNCC1CCOCC1` [Example 214] are 0.5 to 5 µM and less than 0.5 µM.
On the same counts, the results for `Cc1nn2c(C3CCCN(Cc4ccc(Cl)cc4)C3)ccnc2c1CNCc1cccs1` (centres unmarked) [Example 149, 1-(7-(1-(4-Chlorobenzyl)piperidin-3-yl)-2-methylpyrazolo[1,5-a]pyrimidin-3-yl)-N-(thiophen-2-ylmethyl)methanamine] are 0.5 to 5 µM and less than 0.5 µM.
